Experimental data published in patent US5439930A, “Biologically active n-acylprolydipeptides having antiamnestic, antihypoxic and anorexigenic effects” (Russian-American Institute for New Drug Development, priority 1992, dated 1995).
Where a SMILES comes first, the peptide text is derived from it. The star is where a group is joined. PhAc = O=C(Cc1ccccc1)*

Legend:
[1] = tested on: undertraining of the passive avoidance reflex, rats; experiment: Passive avoidance with undertraining, different regimes of administration; type: in vivo; details: 0.5 mg/kg i.p.
[2] = tested on: active avoidance learning, rats; experiment: Active avoidance learning in shuttle-box test; type: in vivo
Text: (§1) The influence of Compound I on the active avoidance learning was studied in shuttle-box test (Ugo Basile, Italy). The conditioned reflex of active avoidance had been developed for 5 days with 50 daily trials for each rat. The learning task consisted in the rats' avoiding of the electric shock applied through the cage floor directly after sound. Rats could avoid the shock by moving into another compartment of the cage, but only while the sound was present (3 sec.).

[3] = tested on: damaged stable active avoidance reaction, rats; experiment: Conditional active avoidance reflex after damage (simultaneous sound and footshock); type: in vivo
Text: as §1
In other experiments, stable active avoidance reaction was damaged by simultaneously switching of sound and electrical footshock for 5 trials. Compound I prevented the impairment of avoidance (Table 6).

outbred albino male mice = experiment: Acute habituation of locomotor activity (Optovarimex); type: in vivo
Protocol: The effect of Compound I on acute habituation of locomotor activity was estimated according to diminution of locomotions during 30 minutes. Experiments were performed on outbred albino male mice (18-22 g) placed in groups of 10 animals in registration cage (Optovarimex, Colomb., USA).

lobectomized rats = experiment: Active avoidance after frontal lobectomy; type: in vivo; details: 0.1 mg/kg daily
Protocol: The impairment of learning and memory was achieved also by frontal lobectomy, which was performed after passive avoidance or active avoidance learning. Compound I (0.1 mg/kg) was administered beginning from the first post-operational day and lasting for 9 days. The testing was performed at 4th and 9th days. […] The frontal lobectomy has as a consequence the decrease of the latency of the entering of the dark compartment; Compound I restored the passive avoidance reaction (Table 8).
Compound I increased the percentage of the animals performing the active avoidance reaction and the coefficient of the preserving (Table 8).

[4] = tested on: rat's offspring damaged by prenatal alcoholization; experiment: Active avoidance learning of offspring after prenatal alcoholization; type: in vivo, rats
Protocol: (§2) The cognitive impairment in the rat's offspring was provoked by prenatal alcoholization or prenatal hypoxia. Prenatal alcoholization was achieved by peroral administration of 5 g/kg/day (25% solution) ethanol to pregnant female rats during whole pregnancy. To achieve prenatal hypoxia the rats on the 15th day of pregnancy were placed into hypobaric barometric chamber (the "elevating" up 8500 m altitude; exposition for 2 hours).
(§3) The treatment of the offspring was performed from 8th day to 20th day. Compound I was administered in the dose of 0.1 mg/kg/day subcutaneously. The testing was performed on two-month old rats.
It has been established that both kinds of damage (alcoholization, hypoxia) caused learning disorders in active avoidance test. Early postnatal administration of Compound I restored learning activity (Table 9).

[5] = tested on: rat's offspring after prenatal alcoholization; experiment: Open field locomotor activity and habituation of offspring after prenatal alcoholization; type: in vivo, rats
Protocol: as §2, §3
Chronic postnatal administration of Compound I restored the normal course of the habituation (Table 10).

[6] = Body weight and food consumption; type: in vivo, rats
Protocol: The influence of Compound I on body weight and food consumption was studied in the experiments on the outbred rats. The substance, administered during 3 weeks in dose of 0.1 mg/kg/day intraperitoneally slowed the dynamics of weight increase in comparison to control: the increase of the weight (in %% to the initial one) was 12% in the treated group and 24% in the control group.
The amount of the consumed chow checked between 19th and 21st days was less for treated animals (39.5 g/day/rat) than for control ones (68.6 g/day/rat).

[7] = tested on: phenazepam withdrawn male albino rats; experiment: Conflict situation test during phenazepam withdrawal; type: in vivo; details: 0.5 mg/kg i.p. 15 minutes prior to testing; 24 hours after phenazepam withdrawal
Protocol: (§4) The influence of Compound I on withdrawal syndrome caused by the interruption of chronic administration of benzodiazepine tranquilizer phenazepam (T. A. Voronina et al., In Fenazepam; A. V. Bogatsky, Ed.; Naukova dumka Publishers: Kiev, 1982; pp. 67-169) was studied in experiments on male albino rats weighing 190-200 g at the beginning and 300-350 g at the end of the experiment.
(§5) Phenazepam (2 mg/kg intraperitoneally) or saline (control group of rats) were given once daily for 57 days. The withdrawal syndrome occurred 24-72 hours after the last injection. The withdrawal syndrome in rats consisted in "anxiogenic-like" state aggressiveness and accelerated development of kindled seizures caused by pentylentetrazol. Compound I was administered to the withdrawn rats in doses of 0.5 mg/kg intraperitoneally 15 minutes prior to testing.
The conflict situation test was used to reveal the "anxiety" of rats (J. R. Vogel et al., Psychopharmacologia, 21, 1-7 (1971)). This experiment involved previous training of water deprivated rats to drink water from a trough. Next day electrical stimulation was given by a 0.5 mA electric current through the trough. A conflict situation was created by clashing of the two different reflexes (drinking and self-defense).
This behavior in the conflict situation test can be considered as "anxiogenic-like" one. […]

[8] = tested on: phenazepam withdrawn male albino rats; experiment: Threshold of aggressive behavior during phenazepam withdrawal; type: in vivo; details: 0.5 mg/kg i.p.; 24 hours after the last administration of phenazepam
Protocol: as §4, §5
The threshold of the aggressive behavior was determined in the experiment on the rats (R. Tedeshi et al., J. Pharmacol. Exp. Ther., 125, 28-34 (1959)). The paired rats were placed on the electrified floor; the strength of the current, which provokes the fighting, was registered.

CCOC(=O)CNC(=O)[C@@H]1CCCN1C(=O)Cc1ccccc1 [Compound I, N-phenacetyl-L-prolylglycine ethyl ester] (PhAc-Pro-Gly-OEt)
Mnestic activity (Ma), administration 15 min. before retrieval [1]: 32% | Mnestic activity (Ma), administration 15 min. before trial [1]: 23% | Mnestic activity (Ma), administration immediately after trial [1]: 14.0% | Percentage of the rats reached the stable avoidance ([2]; day 1 of learning, 0.1 mg/kg daily i.p. 14 days before and during learning): 0 | Percentage of the rats reached the stable avoidance ([2]; day 2 of learning, 0.1 mg/kg daily i.p.): 15 | Percentage of the rats reached the stable avoidance ([2]; day 3 of learning, 0.1 mg/kg daily i.p.): 43 | Percentage of the rats reached the stable avoidance ([2]; day 4 of learning, 0.1 mg/kg daily i.p.): 57 | Percentage of the rats reached the stable avoidance ([2]; day 5 of learning, 0.1 mg/kg daily i.p.): 67 | Percentage of avoidances during 5 trials ([3]; after damage, 1-5th trials): 86.7 | Percentage of avoidances during 5 trials ([3]; after damage, 6-10th trials): 88.9 ± 4.8 | Percentage of avoidances during 5 trials ([3]; after damage, 11-15th trials): 97.8 | Percentage of avoidances during 5 trials ([3]; before damage): 88.9 ± 4.8 | Habituation index (motor activity last 5 min / first 5 min of recording) (outbred albino male mice; 0.05 mg/kg, 15 min before registration): 30% | Habituation index (outbred albino male mice; 0.1 mg/kg): 10% | Habituation index (outbred albino male mice; 0.5 mg/kg): 15% | Habituation index (outbred albino male mice; 2.5 mg/kg): 25% | Habituation index (outbred albino male mice; 5.0 mg/kg): 27% | Initial locomotor activity (outbred albino male mice; dose range 0.05-5.0 mg/kg): without changing of initial locomotor activity | %% of avoiding rats (lobectomized rats; 4th day): 42.8% | Active avoidance test - coeff. of preserving (lobectomized rats; 4th day): 28.1% | %% of avoiding rats (lobectomized rats; 9th day): 57.1% | Active avoidance test - coeff. of preserving (lobectomized rats; 9th day): 38.1% | Rats with reflex of active avoidance ([4]; day 1 of learning, 0.1 mg/kg/day s.c. from 8th to 20th day): 0% | Rats with reflex of active avoidance ([4]; day 1 of retention): 78% | Rats with reflex of active avoidance ([4]; day 2 of learning): 0% | Rats with reflex of active avoidance ([4]; day 2 of retention): 89% | Rats with reflex of active avoidance ([4]; day 3 of learning): 55% | Rats with reflex of active avoidance ([4]; day 4 of learning): 82% | Number of horizontal movements ([5]; day 1 of observation, chronic postnatal administration): 8.2 | Number of horizontal movements ([5]; day 5 of observation): 3.7 | Coefficient of Habituation ([5]; open field): 0.45 | Increase of the weight (in %% to the initial one) ([6]; 0.1 mg/kg/day i.p. during 3 weeks): 12% | Amount of the consumed chow ([6]; between 19th and 21st days, 0.1 mg/kg/day i.p.): 39.5 g/day/rat | The amount of the Punishment Response [7]: 48.40 ± 12.39 | Aggression Threshold (mA) [8]: 0.92 ± 0.1 mA
